# Assay results taken from patent US20230382869A1, “Phenyl-3,4-dihydroisoquinolin-2(1h)-yl-ethan-1-one derivatives as dopamine d1receptor positive allosteric modulators” (Eli Lilly and Company, priority 2020, published 2023).
# How the values were obtained:
# human D1 receptor = human D1 receptor (Homo sapiens (Human), UniProt P21728); experiment: Human D1 Receptor PAM Assay (cAMP HTRF, potentiator mode); assay type: cell-based
# Source text: The PAM activity of the compounds of the present invention may be measured essentially as described in Svensson et al., An Allosteric Potentiator of the Dopamine D1 Receptor Increases Locomotor Activity in Human D1 Knock-in Mices without Casusing Stereotypy or Tachyphylaxis. J. Pharmacol. Exp. Ther. (2017) 360:117-128.
# More specifically, HEK293 cells that stably express the human D1 receptor (Accession number NM_000794) are generated by gene transduction using the pBABE-bleo retroviral vector and selected with Zeocin™ (InvivoGen). At approximately 80% confluency, the cells are harvested using TrypLE™ Express (Gibco), suspended in FBS plus 8% DMSO, and stored in liquid nitrogen. On the day of the assay, cells are thawed and resuspended in STIM buffer (Hanks Balanced Salt Solution supplemented with 0.1% BSA, 20 mM HEPES, 500 μM IBMX, and 100 μM ascorbic acid).
# Test compound is serially diluted (1:2) with DMSO into assay plates (ProxiPlate-384 Plus, PerkinElmer) using acoustic dispensing (Labcyte) to provide 20 concentrations for full response curves. Test compound (80 nL) is added to 5 μL STIM buffer containing 2000 cells, and 5 μL of a 2×concentration dopamine solution in STIM buffer that will generate an EC20 level response (24 nM in stock solution, or 12 nM final) and a final DMSO concentration in the well of 0.8%. Plates are incubated at room temperature for a total reaction time of 60 min.
# cAMP production is quantified using HTRF® detection (Cisbio) according to the manufacturer's instructions. Generally, lysis buffer containing anti-cAMP cryptate (5 μL) and D2-conjugate (from HTRF® kit)(5 μL) is added to the wells, plates are incubated for an additional 60-90 min, and the time-resolved fluorescence is detected using an EnVision™ plate reader (PerkinElmer). Fluorescence data is converted to cAMP concentrations using a cAMP standard curve and analyzing using a 4-parameter non-linear logistic equation (Genedata Screener, version 13.0.5-standard). For potentiator mode concentration-response curves, results are expressed as percent of the window between a response at EC20 concentration of dopamine alone (normalized to 0%) and the maximum response to dopamine (defined by response to 5 μM dopamine, final concentration, normalized as 100%). Absolute EC50 values are calculated based on the maximum and minimum responses of the control agonist (dopamine). The % Potentiation (% Top) is determined from the fitted top of the concentration response curve.
# CYP3A4 = CYP3A4 (Homo sapiens (Human), UniProt P08684); experiment: Calculation of fraction of compound cleared through CYP3A4 metabolism (fmCYP3A4); details: fmCYP × fm3A4_RCP (worst-case fm3A4_RCP = 1)
# Source text: The fraction of overall clearance of a drug via oxidative metabolism by the cytochrome P450 (CYP) is an important indication for potential victim drug-drug interaction mediated adverse effects. (see generally Ogu, Chris C., and Maxa, Jan L., Drug interactions due to cytochrome P450, BUMC Proceedings 2000; 13:421-423.) The greater fraction of overall clearance for a given drug that goes though a CYP oxidation pathway, particularly exclusively through a single CYP, as for example CYP3A4, the greater the potential that the drug may be found susceptible to undesired victim drug-drug interactions when used in therapy. To determine the fmCYP3A4 (the fraction of metabolism via CYP3A4), the fraction of P450-mediated oxidation, (fmCYP) is first determined in human hepatocytes. The relative contribution of CYP3A4 mediated oxidation (fmCYP3A4_RCP) over other P450 s is then determined using a recombinant CYP phenotyping assay (RCP). The fmCYP3A4 is calculated using the following equation:
# fmCYP3A4=fmCYP×fmCYP3A4_RCP
# The renal and biliary excretion of test compounds is tested in bile-duct cannulated dogs essentially according to Burkey J L, et al. (2002) Disposition of LY333531, a selective protein kinase C beta inhibitor, in the Fischer 344 rat and beagle dog. Xenobiotica 32:1045-1052. […] The fraction of compound cleared through CYP3A4 metabolism is calculated using the equation below: […]
# Cytochrome P450 (CYP) = experiment: Fraction of CYP-mediated oxidative metabolism (fmCYP) in human hepatocytes with/without ABT; assay type: in vitro ADME
# Experimental: The relative contribution of P450 s in the overall metabolism of a compound was determined from the clearance of the drug in an assay using human hepatocytes in the presence and absence of the pan P450 inhibitor 1-aminobenzotriazole (ABT). The intrinsic clearance was determined in cryopreserved human hepatocytes essentially as described in McGinnity D F, et al. (2004) Evaluation of fresh and cryopreserved hepatocytes as in vitro drug metabolism tools for the prediction of metabolic clearance. Drug Metab Dispos 32:1247-1253. Generally, the assay incubations contain 0.3 μM test compound and 10^6 cells/mL hepatocytes, with or without 0.5 hr. pre-incubation with ABT (1 mM). Parent compound loss is measured by LC/MS after 15, 30, 60 and 90 min. incubation. The intrinsic clearance (μL/min/10^6 cells) is calculated using the following equation for both ±ABT. The fraction of metabolism by CYP is the percentage of inhibition by ABT.
# CLint=−kdep×incubation volume/10^6 cells,
# in which the kdep, the substrate depletion constant (min^−1), is the slope determined using linear regression from the log transformed % remaining on the y-axis vs time on the x-axis (min^−1).
# CYP3A = experiment: Intrinsic clearance CLint,CYP3A,liver; assay type: in vitro ADME; details: human
# human D1 receptor, sequence (P21728 whole entry): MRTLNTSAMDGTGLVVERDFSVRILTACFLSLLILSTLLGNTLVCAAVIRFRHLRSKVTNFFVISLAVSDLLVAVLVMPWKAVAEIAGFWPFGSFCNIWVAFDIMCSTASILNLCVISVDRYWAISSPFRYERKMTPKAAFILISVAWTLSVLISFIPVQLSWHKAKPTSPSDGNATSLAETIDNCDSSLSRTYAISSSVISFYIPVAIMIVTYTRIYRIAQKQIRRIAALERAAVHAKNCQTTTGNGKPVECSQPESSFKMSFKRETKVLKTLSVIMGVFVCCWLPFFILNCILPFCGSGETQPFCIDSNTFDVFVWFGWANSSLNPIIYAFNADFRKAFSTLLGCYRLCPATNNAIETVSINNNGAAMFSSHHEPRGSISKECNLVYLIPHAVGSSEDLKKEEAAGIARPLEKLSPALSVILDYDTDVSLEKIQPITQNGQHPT
smiles,measurement,setting,value
"C[C@H]1c2ccc(F)c(CCC(C)(C)O)c2C[C@H](CO)N1C(=O)Cc1c(F)cccc1Cl [Example 7, 2-(2-chloro-6-fluoro-phenyl)-1-[(1S,3R)-6-fluoro-3-(hydroxymethyl)-5-(3-hydroxy-3-methyl-butyl)-1-methyl-3,4-dihydro-1H-isoquinolin-2-yl]ethanone]",EC50,"human D1 receptor; HEK293 cells expressing human D1, with EC20 dopamine (12 nM final), cAMP, read-out: Abs EC50",10.2 ± 1.4 nM
same,% Top (% Potentiation),"human D1 receptor; fitted top, 0% = EC20 dopamine alone, 100% = 5 μM dopamine",90.9%
same,fmCYP3A4,CYP3A4,0.322
same,route of metabolism in hepatocytes,Cytochrome P450 (CYP),primarily metabolized through non-oxidative processes
same,fmCYP,"Cytochrome P450 (CYP); CLint ±ABT (1 mM), 0.3 μM compound",0.322
same,fractions metabolized by CYPs,Cytochrome P450 (CYP); ±ABT,32.3%
same,microsomal CLint,CYP3A,25.5 µL/min/mg
